Source: patent US20250206722A1, “SMALL MOLECULE INHIBITORS OF TEA DOMAIN FAMILY MEMBERS” (The Scripps Research Institute, priority 2022, published 2025)

Experiments:
Format in all cases: cell-based
NCI-H226 cells [1] = experiment: NCI-H226 proliferation assay (Wuxi AppTec); settings: Homo sapiens, 168 h, 7 days, CellTiter-Glo, top dose 10, 3-fold dilution, 9 doses
Method: […] Proliferation Assay (From Wuxi AppTec CO.):
Day −1: Seeding cells • (1) Equilibrate cell culture medium to 37° C. • (2) Remove and discard the culture medium. • (3) Briefly rinse the cell layer with PBS to remove all traces of serum that contains […]. • (4) Add 2-3 mL of Trypsin-EDTA solution to flask and observe cells under an inverted microscope until cell layer is dispersed. • (5) Add 6-8 mL of growth medium to terminate the digestion of Trypsin/EDTA. • (6) Centrifuge the mixture (Trypsin EDTA and the growth medium) at 1000 rpm for 5 mins. • (7) Discard the supernatant, suspend the cell precipitation with the fresh growth medium, then take 1 mL the cell suspension to count cells with Vi-cell XR cell viability analyzer. • (8) Adjust the cell density to 500 cells/well for 384-well plates. • (9) Add 50 µL/well volume cell suspension to the assay plate. • (10) Add […] media to the control columns. • (11) Incubate the plate at 37° C., 5% CO2 for overnight. Day 0: Compounds treatment • (1) Add cpds to each well by Tecan HP D300E. The top dose is […], 3-fold dilution and 9 doses. DMSO final concentration will be normalized to 0.2%. • (2) Incubate the assay plate at 37° C., 5% CO2 for 7 days. Day 7: Plate read • (1) Equilibrate the assay plate to the room temperature for nearly 30 minutes. • (2) Add […] CellTiter-Glo reagent to each well and shake the plate for 1 min, incubate 10 min and keep them from light. • (3) Detect the plate by EnVision. Data analysis:
Max: Average of the DMSO group Min: Average of medium group.

NCI-H226 cells [2] = experiment: NCI-H226 proliferation assay (in house); settings: Homo sapiens, 120 h, 5 days, Cell TiterGlo, 20-point 1:2 dilution from 20 μM
In short: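 Cells in RPMI 1640 + 10% FBS, 500 per well, dosed after 24 h with 20-point 1:2 dilutions from 20 μM (final), in triplicate. After 5 days at 37 °C, 5% CO2, viability read by CellTiter-Glo luminescence.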

[3] = test system: transcriptional activity of TEADs; experiment: TEAD reporter assay (MCF7 TEAD-LUC reporter cells); settings: Homo sapiens, 24 hours, BrightGlo luminescence
In short: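 MCF7 TEAD-LUC reporter cells were plated at 5,000/well and after 24 h treated with a 20-point 1:2 series from 20 μM final, in triplicate. Luciferase was read by BrightGlo luminescence after 24 h exposure at 37 °C.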

| IC50 (NCI-H226 cells [1]) [µM] | IC50 (NCI-H226 cells [2]) [µM] | IC50 [3] [nM] | SMILES |
| --- | --- | --- | --- |
| 0.078 |  |  | C=CC(=O)N1CCN(c2nccnc2Nc2ccc(C(F)(F)F)c(OC)c2)CC1 [Example 37, 1-(4-(3-((3-methoxy-4-(trifluoromethyl)phenyl)amino)pyrazin-2-yl)piperazin-1-yl)prop-2-en-1-one] |
| 0.42 |  |  | C=CC(=O)N1CCN(c2nccnc2Nc2ccc(C#N)cc2)CC1 [Example 38, 4-((3-(4-acryloylpiperazin-1-yl)pyrazin-2-yl)amino)benzonitrile] |
| 0.036 |  |  | C=CC(=O)N1CC=C(c2nccnc2Nc2ccc(OC(F)(F)F)nc2)CC1 [Example 57, 1-(4-(3-((6-(trifluoromethoxy)pyridin-3-yl)amino)pyrazin-2-yl)-3,6-dihydropyridin-1(2H)-yl)prop-2-en-1-one] |
| 0.283 |  |  | C=C(F)C(=O)N1CC=C(c2nccnc2Nc2ccc(OC(F)(F)F)nc2)CC1 [Example 58, 2-fluoro-1-(4-(3-((6-(trifluoromethoxy)pyridin-3-yl)amino)pyrazin-2-yl)-3,6-dihydropyridin-1(2H)-yl)prop-2-en-1-one] |
| 0.1 |  |  | C=CC(=O)N1CC=C(c2nccnc2Nc2cnc(C(F)(F)F)nc2)CC1 [Example 59, 1-(4-(3-((2-(trifluoromethyl)pyrimidin-5-yl)amino)pyrazin-2-yl)-3,6-dihydropyridin-1(2H)-yl)prop-2-en-1-one] |
| 1.31 |  |  | C=C(F)C(=O)N1CC=C(c2nccnc2Nc2cnc(C(F)(F)F)nc2)CC1 [Example 60, 2-fluoro-1-(4-(3-((2-(trifluoromethyl)pyrimidin-5-yl)amino)pyrazin-2-yl)-3,6-dihydropyridin-1(2H)-yl)prop-2-en-1-one] |
| 0.104 | 0.424 |  | C=C(F)C(=O)N1CCC(c2nccnc2Oc2ccc(C(F)(F)F)cn2)CC1 [Example 76, 2-fluoro-1-(4-(3-((5-(trifluoromethyl)pyridin-2-yl)oxy)pyrazin-2-yl)piperidin-1-yl)prop-2-en-1-one] |
| 0.263 |  |  | C=CC(=O)N1CCC(O)(c2nccnc2Oc2ccc(C(F)(F)F)nc2)CC1 [Example 83, 1-(4-hydroxy-4-(3-((6-(trifluoromethyl)pyridin-3-yl)oxy)pyrazin-2-yl)piperidin-1-yl)prop-2-en-1-one] |
| 0.042 | 0.075 |  | C=CC(=O)N1CCC(c2nccnc2Oc2cnc(C(F)(F)F)nc2)CC1 [Example 91, 1-(4-(3-((2-(trifluoromethyl)pyrimidin-5-yl)oxy)pyrazin-2-yl)piperidin-1-yl)prop-2-en-1-one] |
| 1.12 | 5.64 |  | C=C(F)C(=O)N1CCC(c2nccnc2Oc2cnc(C(F)(F)F)nc2)CC1 [Example 92, 2-fluoro-1-(4-(3-((2-(trifluoromethyl)pyrimidin-5-yl)oxy)pyrazin-2-yl)piperidin-1-yl)prop-2-en-1-one] |
| 0.041 | 0.074 |  | C=C(F)C(=O)N1CCC(c2nc(C)cnc2Oc2ccc(C(F)(F)F)nc2)CC1 [Example 115, 2-fluoro-1-(4-(6-methyl-3-((6-(trifluoromethyl)pyridin-3-yl)oxy)pyrazin-2-yl)piperidin-1-yl)prop-2-en-1-one] |
| 0.205 |  |  | C=CC(=O)N1CCN(c2ccnnc2Nc2ccc(C(F)(F)F)cn2)CC1 [Example 120, 1-(4-(3-((5-(trifluoromethyl)pyridin-2-yl)amino)pyridazin-4-yl)piperazin-1-yl)prop-2-en-1-one] |
| 1.4 |  |  | C=CC(=O)N1CCN(c2ccnnc2Nc2ccc(C(F)(F)F)nc2)CC1 [Example 121, 1-(4-(3-((6-(trifluoromethyl)pyridin-3-yl)amino)pyridazin-4-yl)piperazin-1-yl)prop-2-en-1-one] |
| 0.149 |  | 2.3 | C=CC(=O)N1CC=C(c2cccnc2Nc2ccc(OC(F)(F)F)nc2)CC1 [Example 147, 1-(2-((6-(trifluoromethoxy)pyridin-3-yl)amino)-3′,6′-dihydro-[3,4′-bipyridin]-1′(2′H)-yl)prop-2-en-1-one] |
|  | 0.192 | 1.1 | C=CC(=O)N1CCN(c2ccccc2Nc2ccc(C(F)(F)F)cc2)CC1 [Example 162, 1-(4-(2-((4-(trifluoromethyl)phenyl)amino)phenyl)piperazin-1-yl)prop-2-en-1-one] |
|  | 5 | 10000 | C=CC(=O)N1CCC(n2ccc(C(=O)c3ccc(C(F)(F)F)cc3)n2)CC1 [Example 163, 1-(4-(3-(4-(trifluoromethyl)benzoyl)-1H-pyrazol-1-yl)piperidin-1-yl)prop-2-en-1-one] |
|  | 5 | 19.8 | C=CC(=O)N1CCC(n2nc(C(=O)c3ccc(C(F)(F)F)cc3)cc2C)CC1 [Example 165, 1-(4-(5-methyl-3-(4-(trifluoromethyl)benzoyl)-1H-pyrazol-1-yl)piperidin-1-yl)prop-2-en-1-one] |
|  | > 20 | > 20000 | C=C(C)C(=O)N1CCN(c2nccnc2Nc2ccc(C(F)(F)F)nc2)CC1 [Example 177, 2-methyl-1-(4-(3-((6-(trifluoromethyl)pyridin-3-yl)amino)pyrazin-2-yl)piperazin-1-yl)prop-2-en-1-one] |
|  | 0.884 | 2.7 | C/C=C/C(=O)N1CCN(c2nccnc2Nc2ccc(C(F)(F)F)nc2)CC1 [Example 178, (E)-1-(4-(3-((6-(trifluoromethyl)pyridin-3-yl)amino)pyrazin-2-yl)piperazin-1-yl)but-2-en-1-one] |
|  | > 20 | > 20000 | O=C(C(O)CO)N1CCN(c2nccnc2Nc2ccc(C(F)(F)F)cc2)CC1 (stereo not drawn) [Example 180, 2,3-dihydroxy-1-(4-(3-((4-(trifluoromethyl)phenyl)amino)pyrazin-2-yl)piperazin-1-yl)propan-1-one] |
|  | 0.034 | 1.2 | N#C/C=C\C(=O)N1CCN(c2nccnc2Nc2ccc(C(F)(F)F)cc2)CC1 [Example 182, (Z)-4-oxo-4-(4-(3-((4-(trifluoromethyl)phenyl)amino)pyrazin-2-yl)piperazin-1-yl)but-2-enenitrile] |
|  | 0.422 | 33.9 | N#C/C=C/C(=O)N1CCN(c2nccnc2Nc2ccc(C(F)(F)F)nc2)CC1 [Example 183, (E)-4-oxo-4-(4-(3-((6-(trifluoromethyl)pyridin-3-yl)amino)pyrazin-2-yl)piperazin-1-yl)but-2-enenitrile] |
|  | 1.45 | 164 | N#C/C=C\C(=O)N1CCN(c2nccnc2Nc2ccc(C(F)(F)F)nc2)CC1 [Example 184, (Z)-4-oxo-4-(4-(3-((6-(trifluoromethyl)pyridin-3-yl)amino)pyrazin-2-yl)piperazin-1-yl)but-2-enenitrile] |
|  | > 20 | > 20000 | CN(C#N)C(=O)N1CCN(c2nccnc2Nc2ccc(C(F)(F)F)cc2)CC1 [Example 185, N-cyano-N-methyl-4-(3-((4-(trifluoromethyl)phenyl)amino)pyrazin-2-yl)piperazine-1-carboxamide] |
|  | > 20 | > 20000 | C=C(CO)C(=O)N1CCN(c2nccnc2Nc2ccc(C(F)(F)F)cc2)CC1 [Example 186, 2-(hydroxymethyl)-1-(4-(3-((4-(trifluoromethyl)phenyl)amino)pyrazin-2-yl)piperazin-1-yl)prop-2-en-1-one] |
|  | 7.41 | 36600 | C=C(COC(C)=O)C(=O)N1CCN(c2nccnc2Nc2ccc(C(F)(F)F)cc2)CC1 [Example 187, 2-(4-(3-((4-(trifluoromethyl)phenyl)amino)pyrazin-2-yl)piperazine-1-carbonyl)allyl acetate] |
|  | 0.013 | 2.3 | C=C(CF)C(=O)N1CCN(c2nccnc2Nc2ccc(C(F)(F)F)cc2)CC1 [Example 188, 2-(fluoromethyl)-1-(4-(3-((4-(trifluoromethyl)phenyl)amino)pyrazin-2-yl)piperazin-1-yl)prop-2-en-1-one] |
|  | 0.994 | 12.7 | O=C(COC(F)(F)F)N1CCN(c2nccnc2Nc2ccc(C(F)(F)F)cc2)CC1 [Example 190, 2-(trifluoromethoxy)-1-(4-(3-((4-(trifluoromethyl)phenyl)amino)pyrazin-2-yl)piperazin-1-yl)ethan-1-one] |
|  | > 20 | 203 | C#CCN(CCOc1nccnc1Nc1ccc(C(F)(F)F)cc1)C(=O)C=C [Example 193, N-(prop-2-yn-1-yl)-N-(2-((3-((4-(trifluoromethyl)phenyl)amino)pyrazin-2-yl)oxy)ethyl)acrylamide] |
|  | > 20 | 238 | C=C(F)C(=O)NCC1CN(c2ccc(C(F)(F)F)nc2)c2nccnc2N1 (stereo not drawn) [Example 194] |
